Biological target: T1, Leukotriene D4 (LTD4) receptor (Cavia porcellus, UniProt Q2NNR5)
T1 construct: lung cell membrane fractions of guinea pigs were used; from tissue; host or cells: lung membrane fractions of Hartley strain male guinea pigs
T1 sequence (Q2NNR5 1-340): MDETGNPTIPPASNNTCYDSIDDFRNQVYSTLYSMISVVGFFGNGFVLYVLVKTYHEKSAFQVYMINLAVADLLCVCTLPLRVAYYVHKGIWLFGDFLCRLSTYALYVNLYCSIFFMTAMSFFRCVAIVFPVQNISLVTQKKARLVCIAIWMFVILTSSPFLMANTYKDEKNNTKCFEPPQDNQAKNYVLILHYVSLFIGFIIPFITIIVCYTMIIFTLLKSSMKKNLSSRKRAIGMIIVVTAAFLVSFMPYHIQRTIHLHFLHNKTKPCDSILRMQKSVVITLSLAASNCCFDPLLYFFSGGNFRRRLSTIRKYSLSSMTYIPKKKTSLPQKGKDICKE
Test: Leukotriene D4 receptor binding test ([3H]ICI-198615 displacement, lung cell membrane fractions)
Conditions: guinea pig lung membranes; [3H]ICI-198615 about 0.2 nM; pKi=-log Ki; read-out: pKi value (converted)
Method: Leukotriene D4 receptor binding test
<Preparation of receptor samples>
As receptor samples, lung cell membrane fractions of guinea pigs were used. The membrane fractions were prepared according to the method of Ahn et al. (Ahn, H. S. & Barnett, A. (1986) Eur. J. Pharmacol., 127, 153.). After Hartley strain male guinea pigs (body weight: 400 to 500 g, supplied by Nihon SLC Co.) were killed by exsanguination, lungs were extracted and perfused with a physiological saline solution (Otsuka Seiyaku) from lung arteries. The extracted lungs were cut into pieces immediately or after the lungs were stored by freezing them at -80 ° C. A 10-fold amount of a buffer solution (pH 7.4) of 10 mM PIPES, 10 mM MgCl2, 10 mM CaCl2 and 50 mM NaCl was added thereto and the mixtures were made suspensions by a homogenizer (manufactured by Yamato Co., LP-41C Model). After the suspensions were filtered with gauze, the filtrates were centrifuged by an ultracentrifuge (manufactured by Hitachi Co., 70P-72 Model) with 50,000 g for 10 minutes, whereby membrane fractions were deposited. The membrane fractions were washed twice and then suspended in the same buffer solution to obtain receptor samples. Measurement of a protein concentration was conducted by the Lowry method (Lowry, O, H. et al. (1951) J. Biol. Chem., 193,265.) by using bovine serum albumin as a standard protein. The samples prepared (protein amount: 10 to 25 mg/ml) were stored by freezing them at -80° C. and used for experiments.
<Leukotriene D4 receptor binding test>
The leukotriene D4 (LTD4) receptor binding test was conducted according to the method of O'Sullivan et al. (O'Sullivan, B. P. & Mong, S. (1989) Mol. Pharmacol., 35, 795.). The receptor samples were diluted with a buffer solution (pH 7.4) of 10 mM PIPES, 10 mM MgCl2, 10 mM CaCl2 and 50 mM NaCl and 0.42 mg/ml in terms of a protein amount was used. As a labeling compound, [^3 H]ICI-198615 (produced by Du Pont Co., 60 Ci/mmol) which specifically binds to the LTD4 receptor was used. [^3 H]ICI-198615 and a compound to be tested were dissolved in dimethylsulfoxide and a 1/50 amount (2% by volume) of the solution was added to the receptor-diluted solutions, respectively. 500 μl of each reaction mixture was incubated at 25° C. for 40 minutes and then filtered with a glass fiber filter (Whatman, GF/B type) by using a cell harvester (manufactured by Brandel Co., M-30R Model). The filters were washed with 10 ml of an ice-cooled 100 mM NaCl-50 mM phosphate buffer solution (pH 7.5) and subjected to ultrasonic treatment in 9 ml of a liquid scintillator (manufactured by Nacalai Tesque, Co., Clear sol I) for 2 minutes. Thereafter, radioactivity was measured by a liquid scintillation counter (manufactured by Packard Co., 2000 CA Model). In a test of determining a dissociation constant of ICI-198615, 0.1 to 2 nM [^3 H]ICI-198615 and 10 μM non-radioactive ICI-198615 were used. In a test of determining inhibition constants of the respective compounds to be tested, [^3 H]ICI-198615 having a concentration of about 0.2 nM and the compounds each having a concentration of 0.1 pM to 0.1 mM were used.
<Data analysis of receptor binding test>
The dissociation constant (Kd) of ICI-198615 and the binding inhibition constants (Ki) of the respective compounds to be tested were determined by the following numerical formulae (A), (B) and (C).
wherein B: a concentration of a label [3H] which is bound to a receptor, Bmax: a maximum receptor-binding concentration of a label [^3 H], F: a concentration of a label [^3 H] which is not bound to a receptor, [L]: a concentration of a label [^3 H], IC50 : a concentration of a compound which inhibits 50% of binding of a label [^3 H] to a receptor and pKi: a logarithm, of a reciprocal of Ki.

Row | Ki | Compound
1 | 2 nM | Clc1ccc2ccc(COc3ccc4c(c3)C(OCCc3nn[nH]n3)c3ccccc3CO4)nc2c1 (stereo not drawn) [Example 31, 2-(7-Chloroquinolin-2-yl)methoxy-11-[2-(tetrazol-5-yl)ethoxy]-6,11-dihydrodibenz[b,e]oxepine]
2 | 2 nM | O=C(CSC1c2ccccc2COc2ccc(OCc3ccc4ccc(Cl)cc4n3)cc21)NS(=O)(=O)c1ccccc1 (stereo not drawn) [Example 39, 11-[(Phenylsulfonyl)aminocarbonyl]methylthio-2-(7-chloroquinolin-2-yl)methoxy-6,11-dihydrodibenz[b,e]oxepine]
3 | 5.01 nM | CC(SC1c2ccccc2COc2ccc(OCc3ccc4ccccc4n3)cc21)C(=O)O (stereo not drawn) [Example 23, 11-(1-Carboxyethylthio)-2-(quinolin-2-yl)methoxy-6,11-dihydrodibenz[b,e]oxepine]
4 | 1.26 nM | O=C(CSC1c2ccccc2COc2ccc(OCc3ccc4ccccc4n3)cc21)NS(=O)(=O)c1ccccc1 (stereo not drawn) [Example 41, 11-[(Phenylsulfonyl)aminocarbonyl]methylthio-2-(quinolin-2-yl)methoxy-6,11-dihydrodibenz[b,e]oxepine]
5 | 5.01 nM | O=C(O)COC1c2ccccc2COc2ccc(OCc3ccc4ccc(Cl)cc4n3)cc21 (stereo not drawn) [Example 27, 11-Carboxymethoxy-2-(7-chloroquinolin-2-yl)methoxy-6,11-dihydrobenz[b,e]oxepine]
6 | 2.51 nM | Cc1ccccc1S(=O)(=O)NC(=O)CCSC1c2ccccc2COc2ccc(OCc3ccc4ccc(Cl)cc4n3)cc21 (stereo not drawn) [Example 40, 2-(7-Chloroquinolin-2-yl)methoxy-11-[2-[(2-methylphenylsulfonyl)aminocarbonyl]ethylthio]-6,11-dihydrodibenz[B,e]oxepine]

Same assay, conditions: pKi value, guinea pig lung membranes; [3H]ICI-198615 about 0.2 nM; pKi=-log Ki

Row | Compound | Ki
7 | CC(=O)CCc1ccc2c(c1)COc1ccc(OCc3ccc4cc(F)c(Cl)cc4n3)cc1C2SCCC(=O)O (stereo not drawn) [Example 48, 11-(2-Carboxyethylthio)-2-(7-chloro-6-fluoroquinolin-2-yl)methoxy-8-(2-acetylethyl)-6,11-dihydrodibenz[b,e]oxepine] | 0.2 nM
8 | O=C(O)CCSC1c2ccccc2COc2ccc(OCc3ccc4cc(F)c(Cl)cc4n3)cc21 (single isomer, unassigned; (-)) [Example 51, (-)-11-(2-Carboxyethylthio)-2-(7-chloro-6-fluoroquinolin-2-yl)methoxy-6,11-dihydrodibenz[b,e]oxepine] | 1.26 nM
9 | NC(=O)c1cccc2c1COc1ccc(OCc3ccc4ccc(Cl)cc4n3)cc1C2SCCC(=O)O (stereo not drawn) [Example 20, 7-Carbamoyl-11-(2-carboxyethylthio)-2-(7-chloroquinolin-2-yl)methoxy-6,11-dihydrodibenz[b,e]oxepine] | 0.631 nM
10 | O=C(O)CCSC1c2ccccc2COc2ccc(OCc3ccc4ccc(Cl)cc4n3)cc21 (single isomer, unassigned; (+)) [Example 52, (+)-11-(2-Carboxyethylthio)-2-(7-chloroquinolin-2-yl)methoxy-6,11-dihydrodibenz[b,e]oxepine] | 0.316 nM
11 | O=C(O)CCSC1c2ccccc2COc2ccc(OCc3ccc4cc(Cl)ccc4n3)cc21 (stereo not drawn) [Example 5, 11-(2-Carboxyethylthio)-2-(6-chloroquinolin-2-yl)methoxy-6,11-dihydrodibenz[b,e]oxepine] | 3.16 nM
12 | O=C(O)CCSC1c2ccc(SCC(=O)O)cc2COc2ccc(OCc3ccc4ccc(Cl)cc4n3)cc21 (stereo not drawn) [Example 16, 11-(2-Carboxyethylthio)-8-carboxymethylthio-2-(7-chloroquinolin-2-yl)methoxy-6,11-dihydrodibenz[b,e]oxepine] | 0.631 nM
13 | Cc1cccc2c1C(SCCC(=O)O)c1cc(OCc3ccc4ccc(Cl)cc4n3)ccc1OC2 (stereo not drawn) [Example 12, 11-(2-Carboxyethylthio)-2-(7-chloroquinolin-2-yl)methoxy-10-methyl-6,11-dihydrodibenz[b,e]oxepine] | 5.01 nM
14 | O=C(O)CCCSC1c2ccccc2COc2ccc(OCc3ccc4ccc(Cl)cc4n3)cc21 (stereo not drawn) [Example 24, 11-(3-Carboxypropylthio)-2-(7-chloroquinolin-2-yl)methoxy-6,11-dihydrodibenz[b,e]oxepine] | 2.51 nM
15 | N#Cc1cccc2c1COc1ccc(OCc3ccc4ccc(Cl)cc4n3)cc1C2SCCC(=O)O (stereo not drawn) [Example 15, 11-(2-Carboxyethylthio)-2-(7-Chloroquinolin-2-yl)methoxy-7-cyano-6,11-dihydrodibenz[b,e]oxepine] | 0.631 nM
16 | O=C(O)CCSC1c2ccc(Br)cc2COc2ccc(OCc3ccc4ccc(Cl)cc4n3)cc21 (stereo not drawn) [Example 14, 8-Bromo-11-(2-carboxyethylthio)-2-(7-chloroquinolin-2-yl)-methoxy-6,11-dihydrodibenz[b,e]oxepine] | 3.16 nM
17 | O=C(O)CCSC1c2cc(OCc3ccc4ccc(Cl)cc4n3)ccc2OCc2c(-c3nn[nH]n3)cccc21 (stereo not drawn) [Example 19, 11-(2-Carboxyethylthio)-2-(7-chloroquinolin-2-yl)methoxy-7-(tetrazol-5-yl)-6,11-dihydrodibenz[b,e]oxepine] | 0.501 nM
18 | O=C(O)CCSC1c2ccc(-c3nn[nH]n3)cc2COc2ccc(OCc3ccc4ccc(Cl)cc4n3)cc21 (stereo not drawn) [Example 18, 11-(2-Carboxyethylthio)-2-(7-chloroquinolin-2-yl)methoxy-8-(tetrazol-5-yl)-6,11-dihydrodibenz[b,e]oxepine] | 0.2 nM
19 | O=C(O)CCSC1c2ccccc2COc2ccc(OCc3ccc4ccc(Cl)cc4n3)cc21 (single isomer, unassigned; (-)) [Example 53, (-)-11-(2-Carboxyethylthio)-2-(7-chloroquinolin-2-yl)-methoxy-6,11-dihydrodibenz[b,e]oxepine] | 3.98 nM
20 | Clc1ccc2ccc(COc3ccc4c(c3)C(SCCc3nn[nH]n3)c3ccccc3CO4)nc2c1 (stereo not drawn) [Example 30, 2-(7-Chloroquinolin-2-yl)methoxy-11-[2-(tetrazol-5-yl)ethylthio]-6,11-dihydrodibenz[b,e]oxepine] | 2 nM
21 | O=C(O)CCSC1c2ccc(-c3nn[nH]n3)cc2COc2ccc(OCc3ccc4ccccc4n3)cc21 (stereo not drawn) [Example 17, 11-(2-Carboxyethylthio)-2-(quinolin-2-yl)methoxy-8-(tetrazol-5-yl)-6,11-dihydrodibenz[b,e]oxepine] | 1.58 nM

From US5591752A, “Quinoline derivative” (Ube Industries, Ltd., priority 1993, dated 1997)
